US20210300940A1 (Merck Patent GmbH, priority 2018, published 2021)

Tests used:
TLR7 = target: T1, TLR7 (Homo sapiens, UniProt Q9NYK1); assay: HEK/293 TLR7 Cell Assay; assay type: cell-based; details: TLR7/NFKb HEK cells, R848 agonist 10 uM final concentration, Steady-Glo readout; read-out: TLR7 potency
T1 construct: expressed in transfected cells; host or cells: HEK/293 cells carrying TLR7 and an NF-kB luciferase reporter
T1 sequence (Q9NYK1 27-1049): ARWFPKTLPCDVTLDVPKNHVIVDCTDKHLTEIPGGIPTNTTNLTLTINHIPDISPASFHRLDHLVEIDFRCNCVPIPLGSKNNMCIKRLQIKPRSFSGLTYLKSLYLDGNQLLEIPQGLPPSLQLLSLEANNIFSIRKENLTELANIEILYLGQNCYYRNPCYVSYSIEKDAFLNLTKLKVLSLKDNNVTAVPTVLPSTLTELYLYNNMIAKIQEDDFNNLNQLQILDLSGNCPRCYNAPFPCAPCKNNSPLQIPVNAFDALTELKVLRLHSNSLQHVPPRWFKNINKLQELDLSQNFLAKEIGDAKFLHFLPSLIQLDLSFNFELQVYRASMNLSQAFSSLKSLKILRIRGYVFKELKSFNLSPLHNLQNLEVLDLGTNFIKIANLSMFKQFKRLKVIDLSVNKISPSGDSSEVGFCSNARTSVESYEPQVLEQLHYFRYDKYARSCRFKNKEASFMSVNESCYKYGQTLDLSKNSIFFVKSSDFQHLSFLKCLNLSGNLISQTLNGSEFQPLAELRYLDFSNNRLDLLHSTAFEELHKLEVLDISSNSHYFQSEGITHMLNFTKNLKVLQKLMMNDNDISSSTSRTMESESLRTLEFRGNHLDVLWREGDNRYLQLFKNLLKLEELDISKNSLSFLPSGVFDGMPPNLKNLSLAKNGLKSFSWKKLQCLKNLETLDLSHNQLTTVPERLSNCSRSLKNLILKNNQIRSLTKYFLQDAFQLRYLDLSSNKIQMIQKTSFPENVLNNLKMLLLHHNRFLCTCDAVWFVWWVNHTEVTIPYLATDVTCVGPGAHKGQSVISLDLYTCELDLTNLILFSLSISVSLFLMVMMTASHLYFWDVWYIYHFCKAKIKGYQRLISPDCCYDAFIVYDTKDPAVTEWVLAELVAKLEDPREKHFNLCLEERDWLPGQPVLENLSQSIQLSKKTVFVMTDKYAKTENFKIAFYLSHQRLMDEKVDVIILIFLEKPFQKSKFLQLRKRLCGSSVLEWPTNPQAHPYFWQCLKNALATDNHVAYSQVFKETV
Outline: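 TLR7/NF-κB reporter HEK293 cells, 5000/well, cultured 24 h, then preincubated 30 min with compound before R848 agonist (10 uM final). After 5 h stimulation, Steady-Glo luciferase luminescence read.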

TLR8 = target: T2, TLR8 (Homo sapiens, UniProt Q9NR97); assay: HEK/293 TLR8 Cell Assay; assay type: cell-based; details: HEK cells, R848 agonist 30 uM final concentration, Steady-Glo readout; read-out: TLR8 potency
T2 construct: expressed in transfected cells; host or cells: HEK/293 reporter cells (NF-kB luciferase)
T2 sequence (Q9NR97 27-1041): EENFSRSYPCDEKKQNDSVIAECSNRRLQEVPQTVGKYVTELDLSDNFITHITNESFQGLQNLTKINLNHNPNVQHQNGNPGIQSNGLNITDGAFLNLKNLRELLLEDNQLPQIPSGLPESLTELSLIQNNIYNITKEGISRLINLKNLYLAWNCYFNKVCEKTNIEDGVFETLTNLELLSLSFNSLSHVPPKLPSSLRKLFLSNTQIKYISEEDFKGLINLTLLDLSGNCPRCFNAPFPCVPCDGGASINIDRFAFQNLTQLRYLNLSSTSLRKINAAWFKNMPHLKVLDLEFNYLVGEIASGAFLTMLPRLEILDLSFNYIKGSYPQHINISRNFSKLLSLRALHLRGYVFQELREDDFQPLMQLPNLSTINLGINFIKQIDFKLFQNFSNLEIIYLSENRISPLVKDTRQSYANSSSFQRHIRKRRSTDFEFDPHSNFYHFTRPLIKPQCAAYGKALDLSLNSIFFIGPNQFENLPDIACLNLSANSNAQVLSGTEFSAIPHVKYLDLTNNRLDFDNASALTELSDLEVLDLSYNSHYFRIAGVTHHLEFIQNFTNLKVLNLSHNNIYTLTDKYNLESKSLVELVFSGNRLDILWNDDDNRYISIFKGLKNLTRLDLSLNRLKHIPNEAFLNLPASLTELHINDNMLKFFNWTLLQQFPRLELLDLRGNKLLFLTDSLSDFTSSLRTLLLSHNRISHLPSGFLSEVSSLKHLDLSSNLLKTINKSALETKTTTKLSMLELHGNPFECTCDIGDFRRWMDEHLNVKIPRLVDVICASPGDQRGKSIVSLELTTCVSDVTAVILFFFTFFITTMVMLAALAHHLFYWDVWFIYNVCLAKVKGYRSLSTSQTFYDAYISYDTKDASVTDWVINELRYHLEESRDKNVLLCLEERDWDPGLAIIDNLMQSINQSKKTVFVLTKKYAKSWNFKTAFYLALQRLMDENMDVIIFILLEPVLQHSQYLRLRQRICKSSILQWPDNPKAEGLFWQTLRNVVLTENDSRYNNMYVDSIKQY

Structure (SMILES) | IC50 (TLR7) | IC50 (TLR8)
C[C@H]1CN(c2ccc(C#N)c3nccnc23)C[C@H](CN2CCC(N3CCCC3)CC2)O1 [Example 232, 8-[(2S,6S)-2-Methyl-6-(4-pyrrolidin-1-yl-piperidin-1-ylmethyl)-morpholin-4-yl]-quinoxaline-5-carbonitrile] | < 75 nM | < 75 nM
C[C@@H]1CN(c2ccc(C#N)c3nccnc23)C[C@H](C(=O)NC[C@@H](O)CO)O1 [Example 233, (2R,6R)-4-(8-Cyano-quinoxalin-5-yl)-6-methyl-morpholine-2-carboxylic acid ((R)-2,3-dihydroxy-propyl)-amide] | < 75 nM | < 75 nM
C[C@@H]1CN(c2ccc(C#N)c3nccnc23)C[C@H](C(=O)NC[C@H](O)CO)O1 [Example 234, (2R,6R)-4-(8-Cyano-quinoxalin-5-yl)-6-methyl-morpholine-2-carboxylic acid ((S)-2,3-dihydroxy-propyl)-amide] | 75 to 150 nM | 75 to 150 nM
C[C@@H]1CN(c2ccc(C#N)c3nccnc23)C[C@H](C(=O)N2CC(N3CC(C)(O)C3)C2)O1 [Example 235, 8-[(2R,6R)-2-(3-Hydroxy-3-methyl-[1,3′]biazetidinyl-1′-carbonyl)-6-methyl-morpholin-4-yl]-quinoxaline-5-carbonitrile] | 75 to 150 nM | 75 to 150 nM
C[C@@H]1CN(c2ccc(C#N)c3nccnc23)C[C@H](C(=O)NC2CCC(=O)NC2=O)O1 (stereo partly drawn) [Example 236, (2R,6R)-4-(8-Cyano-quinoxalin-5-yl)-6-methyl-morpholine-2-carboxylic acid (2,6-dioxo-piperidin-3-yl)-amide] | 75 to 150 nM | 75 to 150 nM
C[C@@H]1CN(c2ccc(C#N)c3nccnc23)C[C@H](C(=O)NCC(O)C(F)(F)F)O1 (stereo partly drawn) [Example 237, (2R,6R)-4-(8-Cyano-quinoxalin-5-yl)-6-methyl-morpholine-2-carboxylic acid (3,3,3-trifluoro-2-hydroxy-propyl)-amide] | < 75 nM | < 75 nM
C[C@@H]1CN(c2ccc(C#N)c3nccnc23)C[C@H](C(=O)NC[C@@H](C)O)O1 [Example 238, (2R,6R)-4-(8-Cyano-quinoxalin-5-yl)-6-methyl-morpholine-2-carboxylic acid ((R)-2-hydroxy-propyl)-amide] | < 75 nM | < 75 nM
C[C@@H]1CN(c2ccc(C#N)c3nccnc23)C[C@H](C(=O)NCCN2CCS(=O)(=O)CC2)O1 [Example 239, (2R,6R)-4-(8-Cyano-quinoxalin-5-yl)-6-methyl-morpholine-2-carboxylic acid [2-(1,1-dioxo-1lambda6-thiomorpholin-4-yl)-ethyl]-amide] | < 75 nM | > 150 nM
C[C@@H]1CN(c2ccc(C#N)c3nccnc23)C[C@H](C(=O)NCC2CN(C)CCO2)O1 (stereo partly drawn) [Example 240, (2R,6R)-4-(8-Cyano-quinoxalin-5-yl)-6-methyl-morpholine-2-carboxylic acid (4-methyl-morpholin-2-ylmethyl)-amide] | < 75 nM | < 75 nM
C[C@@H]1CN(c2ccc(C#N)c3nccnc23)C[C@H](C(=O)NC2CCN(CC3CC3)C2)O1 (stereo partly drawn) [Example 241, (2R,6R)-4-(8-Cyano-quinoxalin-5-yl)-6-methyl-morpholine-2-carboxylic acid (1-cyclopropylmethyl-pyrrolidin-3-yl)-amide] | < 75 nM | < 75 nM
CC(=O)N1CCC(NC(=O)[C@H]2CN(c3ccc(C#N)c4nccnc34)C[C@@H](C)O2)CC1 [Example 242, (2R,6R)-4-(8-Cyano-quinoxalin-5-yl)-6-methyl-morpholine-2-carboxylic acid (1-acetyl-piperidin-4-yl)-amide] | < 75 nM | < 75 nM
CC(=O)NCCNC(=O)[C@H]1CN(c2ccc(C#N)c3nccnc23)C[C@@H](C)O1 [Example 243, (2R,6R)-4-(8-Cyano-quinoxalin-5-yl)-6-methyl-morpholine-2-carboxylic acid (2-acetylamino-ethyl)-amide] | 75 to 150 nM | > 150 nM
CCN(C)CCNC(=O)[C@H]1CN(c2ccc(C#N)c3nccnc23)C[C@@H](C)O1 [Example 244, (2R,6R)-4-(8-Cyano-quinoxalin-5-yl)-6-methyl-morpholine-2-carboxylic acid [2-(ethyl-methyl-amino)-ethyl]-amide] | < 75 nM | < 75 nM
C[C@@H]1CN(c2ccc(C#N)c3nccnc23)C[C@H](C(=O)NCC2CCCN2C)O1 (stereo partly drawn) [Example 245, (2R,6R)-4-(8-Cyano-quinoxalin-5-yl)-6-methyl-morpholine-2-carboxylic acid (1-methyl-pyrrolidin-2-ylmethyl)-amide] | < 75 nM | < 75 nM
C[C@@H]1CN(c2ccc(C#N)c3nccnc23)C[C@H](C(=O)NCC(C)(C)O)O1 [Example 246, (2R,6R)-4-(8-Cyano-quinoxalin-5-yl)-6-methyl-morpholine-2-carboxylic acid (2-hydroxy-2-methyl-propyl)-amide] | < 75 nM | < 75 nM
C[C@@H]1CN(c2ccc(C#N)c3nccnc23)C[C@H](C(=O)NC2CCN(CC(F)(F)F)CC2)O1 [Example 247, (2R,6R)-4-(8-Cyano-quinoxalin-5-yl)-6-methyl-morpholine-2-carboxylic acid [1-(2,2,2-trifluoro-ethyl)-piperidin-4-yl]-amide] | < 75 nM | < 75 nM
CC[C@@H](NC(=O)[C@H]1CN(c2ccc(C#N)c3nccnc23)C[C@@H](C)O1)C(N)=O [Example 248, (2R,6R)-4-(8-Cyano-quinoxalin-5-yl)-6-methyl-morpholine-2-carboxylic acid ((R)-1-carbamoyl-propyl)-amide] | 75 to 150 nM | < 75 nM
C[C@@H]1CN(c2ccc(C#N)c3nccnc23)C[C@H](C(=O)NC[C@H](O)C(F)(F)F)O1 [Example 249, (2R,6R)-4-(8-Cyano-quinoxalin-5-yl)-6-methyl-morpholine-2-carboxylic acid ((S)-3,3,3-trifluoro-2-hydroxy-propyl)-amide] | < 75 nM | < 75 nM
C[C@@H]1CN(c2ccc(C#N)c3nccnc23)C[C@H](C(=O)NC[C@@H](O)C(F)(F)F)O1 [Example 250, (2R,6R)-4-(8-Cyano-quinoxalin-5-yl)-6-methyl-morpholine-2-carboxylic acid ((R)-3,3,3-trifluoro-2-hydroxy-propyl)-amide] | < 75 nM | < 75 nM
C[C@@H]1CN(c2ccc(C#N)c3nccnc23)C[C@H](C(=O)N2CC3(C2)CS(=O)(=O)C3)O1 [Example 251, 8-[(2R,6R)-2-(2,2-Dioxo-2lambda6-thia-6-aza-spiro[3.3]heptane-6-carbonyl)-6-methyl-morpholin-4-yl]-quinoxaline-5-carbonitrile] | > 150 nM | > 150 nM
